Entries after “also recorded” stand apart in the source; their conditions may differ. Where two headings read alike, the source gives them in different places. No end group written: not given here.
How the values were obtained:
TRPV4 mutant WIA = test: Whole-cell patch clamp, TRPV4 mutant WIA; settings: 4α-PMA 1 µM, nominally Ca^2+-free; -100 and +100 mV, p = 0.014 and 0.023; n = 8
Description: (§4) Patch clamp recordings were performed on HEK293 cells in the whole cell configuration. Cells were clamped at a potential of −20 mV, and current-voltage (I–V) relations were obtained from voltage ramps from −100 mV to +100 mV. The standard extracellular solution contained 140 mM NaCl, 5 mM CsCl, 2 mM CaCl2, 1 mM MgCl2, 10 mM glucose, and 10 mM HEPES (pH 7.4 with NaOH). In nominally Ca^2+-free solutions, Ca^2+ was omitted. The standard intracellular solution contained 110 mM cesium methanesulfonate, 25 mM CsCl, 2 mM MgCl2, 0.362 mM CaCl2, 1 mM EGTA, and 30 mM HEPES (pH 7.2 with CsOH) with a calculated [Ca^2+] of 100 nM.
(§5) Patch clamp recordings were performed on HEK293 cells in the whole cell configuration using an EPC10 amplifier and Pulse software (HEKA, Lamprecht, Germany). […] Cells were clamped at a potential of –20 mV, and current-voltage (I-V) relations were obtained from voltage ramps from –100 mV to +100 mV with a duration of 400 ms applied every 4 seconds. Ramp data were acquired with a sampling rate of 20 kHz after filtering at 4 kHz. […] The standard intracellular solution contained 110 mM cesium methanesulfonate, 25 mM CsCl, 2 mM MgCl2, 0.362 mM CaCl2, 1 mM EGTA, and 30 mM HEPES (pH 7.2 with CsOH) with a calculated [Ca^2+] of 100 nM (MaxChelator, Chris Patton, Stanford, USA). […]

TRPV4 mutant KRA = test: Whole-cell patch clamp, TRPV4 mutant KRA; settings: 4α-PMA 1 µM, nominally Ca^2+-free; -100 and +100 mV, p = 0.012 and 0.007; n = 5
Description: as §4, §5

wt TRPV4 = test: Whole-cell patch clamp, wild type TRPV4; type: cell-based, human
Excerpt: (§1) (See Methods S1 for details).

CFP-TRPV4-YFP = settings: HEK293 cells, Ca^2+-containing buffer; 4α-PMA data not shown; concomitant increase in donor fluorescence
CaM = CaM (UniProt P0DP23); test: Fluorescence polarization, CaM binding to carboxyfluorescein-labeled TRPV4 peptides; settings: 50 mM Tris pH 7.5, 100 mM KCl, 0.1% BSA, triplicate
Description: (§2) Protein interaction experiments were performed in buffers containing 50 mM Tris, pH 7.5, 100 mM KCl, 0.1% BSA and calcium at the indicated concentrations. Calcium concentrations below 50 µM were buffered with HEDTA, EGTA or EDTA at a buffer concentration of 10 mM. CaM concentrations were 10 µM or as indicated; the tracer peptide concentration was 100 nM. Fluorescence anisotropy was measured in a 384-well black multititer plate (Fluotrac 200, Greiner) using a Fusion alpha FP instrument (PerkinElmer) at 1 s reading time per well. Fluorescence polarization (FP) was calculated according to: [drawing 1] with Ipar and Iperp as the fluorescence emission intensities in planes parallel and perpendicular to the excitation plane. FP signals are given as mean±SEM of triplicate measurements in milli-P (mP) units.
(0.11 MB TIF) Click here for additional data file.

TRPV4 [1] = test: FRET acceptor bleaching, full-length TRPV4 N and C termini in HEK293 cells; type: cell-based, human; settings: extrapolated donor increase at full acceptor photobleaching; unstimulated HEK293; n = 7 (CFP-TRPV4-YFP), 20 and 13 as printed 'respectively'; p<0.0001 versus control
Excerpt: as §1

TRPV4 C2 fragment [2] = test: AlphaScreen interdomain interaction with C2; type: binding, human
Excerpt: First, we did a complementation experiment to test whether a CaM molecule that binds to the C2 fragment of TRPV4 through its C-lobe can form an additional interaction with another CaM binding domain thus forming a ternary complex. […] We used an AlphaScreen-based proximity assay (Fig. 2, Methods S1) in which the acceptor beads were coated with the C-terminal fragment C2-Flag, and the donor beads either with the N-terminal CaM binding peptide P2-biotin, or, as a negative control, with C2-biotin. The interaction between the proteins was measured in the presence of increasing CaM concentrations in 100 µM Ca^2+ or 1 mM EGTA (Fig. 3A).
In an AlphaScreen interaction experiment, donor and acceptor beads were incubated with 10 nM C2-biotin and N2-Flag at concentrations ranging from 30 pM to 1.5 µM, respectively (Fig. 3C).
(§3) Proteins were expressed in E. coli, affinity purified and biotinylated if applicable (for details see Methods S1). For protein interaction measurements, a proximity assay system based on the AlphaScreen technology (PerkinElmer) was used (see Methods S1). Briefly, streptavidin-coated AlphaScreen donor and anti-Flag acceptor beads at a final concentration of 16.7 µg/ml were incubated in a 384-well plate format (OptiPlate-384, PerkinElmer) with C2-GST-biotin or P2-biotin and the respective Flag-tagged interaction protein at concentrations of 10 nM, if not otherwise indicated. Assay buffer conditions were 50 mM Tris, pH 7.4, 100 mM KCl, and 0.1% BSA. After incubation for 90 min at room temperature, the AlphaScreen output signal was recorded in a Fusion alpha FP instrument (PerkinElmer) at 2 s reading time per well. AlphaScreen signals are given as mean±SEM in counts per second (cps) units.
The expression plasmids containing the cDNA for CaM or TRPV4 fragments in the pGEX-2TK vector (Amersham) or a modified derivative that contains an in-frame Flag epitope 5’ to the multiple cloning site were transformed into the BL21(DE3) Escherichia coli host, and protein expression was induced by 200 mg/ml IPTG at an OD600 of 0.6. […] The GST-Flag fusion proteins were eluted with 50 mM Tris, pH 8.5, 100 mM KCl, and 10 mM glutathione. […] The purity of all proteins was confirmed by SDS-polyacrylamide gel electrophoresis and Coomassie staining, and the protein concentration determined by the method according to Bradford using an albumin concentration standard. […]
To establish an improved interaction assay, that allows the quantification of protein interactions on a medium to high throughput scale, a commercially available proximity assay system based on the AlphaScreen (Amplified Luminescent Proximity Homogenous Assay) technology (PerkinElmer) was modified. […]

[3] = system: TRPV4 C terminus peptide library; test: Peptide library overlay, TRPV4 C terminus; type: binding, human; settings: 20-mer peptides on filter, 100 nM biotinylated protein
Excerpt: (0.31 MBTIF) Click here for additional data file.

TRPV4 C2 fragment [4] = test: AlphaScreen-based CaM interaction assay with C2; type: binding, human
Description: as §3
The expression plasmids containing the cDNA for CaM or TRPV4 fragments in the pGEX-2TK vector (Amersham) or a modified derivative that contains an in-frame Flag epitope 5’ to the multiple cloning site were transformed into the BL21(DE3) Escherichia coli host, and protein expression was induced by 200 mg/ml IPTG at an OD600 of 0.6. […] The GST-Flag fusion proteins were eluted with 50 mM Tris, pH 8.5, 100 mM KCl, and 10 mM glutathione. The GST-fusion proteins intended for subsequent biotinylation were subjected to an additional wash step with 50 mM HEPES, pH 7.4, 100 mM KCl and eluted with 50 mM HEPES, pH 8.5, 100 mM KCl, and 10 mM glutathione. The purity of all proteins was confirmed by SDS-polyacrylamide gel electrophoresis and Coomassie staining, and the protein concentration determined by the method according to Bradford using an albumin concentration standard. Biotinylation was performed using a 10-fold molar excess of biotinamidocaproate N-hydroxysuccinimide ester (Sigma). After incubation at 4 °C for 12 h, the reaction was stopped by addition of a 10-fold molar excess of NH4Cl and unbound biotin ester removed by extensive dialysis against 50 mM Tris, pH 7.4, 100 mM KCl.
To establish an improved interaction assay, that allows the quantification of protein interactions on a medium to high throughput scale, a commercially available proximity assay system based on the AlphaScreen (Amplified Luminescent Proximity Homogenous Assay) technology (PerkinElmer) was modified. The assay principle had been originally developed as an enhanced immunoassay and initially termed luminescent oxygen channeling immunoassay (LOCI [1]). […] The resulting emission at a wavelength of 370 nm is further transformed by fluorophores within the bead into a final emission between 520 nm and 620 nm that can be detected by a photomultiplier. […]

[5] = biological target: P5 peptide (TRPV4 C-terminal CaM binding site); test: Fluorescence polarization, binding of CaM and isolated CaM lobes to labeled P5; parameters: species or system human; settings: binding to fluorophore-labeled P5 at 100 µM Ca^2+; tracer 100 nM; pH 7.5
Description: We analyzed the properties of the complex between CaM and C-terminal fragments of the human TRPV4 ortholog, and investigated the structural determinants within the CaM molecule that are involved in binding.
as §2, with “Tracer peptides were synthesized and coupled to carboxyfluorescein (Dr. Sven Rothemund, Core unit peptide technologies, IZKF, Leipzig). Protein” for “Protein”

TRPV4 [6] = test: Whole-cell patch clamp, effect of CaM/CaM mutant overexpression on Ca^2+-dependent TRPV4 current increase; type: cell-based, human
Excerpt: This mutant may bind and displace endogenous CaM, but, owing to the N-terminal mutation, cannot fully substitute for the wild type molecule.
as §1

[7] = labeled peptide 100 nM, CaM 10 µM or as indicated, value is Ca^2+ concentration, read-out: Ca^2+ concentration at half-maximal CaM binding (Ca^2+-dependence, EC50)

Q: `CCCCCCCCCCCCCC(=O)O[C@@H]1[C@@H](C)[C@@]2(O)[C@@H](C=C(CO)C[C@@]3(O)C(=O)C(C)=C[C@@H]23)[C@@H]2C(C)(C)[C@]12OC(C)=O` [4α-PMA] was tested. Which “current activated by 4α-PMA versus wild type” value (TRPV4 mutant WIA) did it give?
A: Significantly larger currents; also recorded: significantly larger than the wild type

Q: What about the “current activated by 4α-PMA versus wild type” value (TRPV4 mutant KRA) of the same compound?
A: Significantly larger currents; also recorded: significantly larger than the wild type

Q: What about the “current activated by 4α-PMA” value (wt TRPV4; 4α-PMA 1 µM, nominally Ca^2+-free, wild type, n = 9) of the same compound?
A: slow, small increase in currents

Q: And the “activation of TRPV4” value (wt TRPV4; nominally Ca^2+-free solutions, HEK293 cells)?
A: weak and slow

Q: What about the “change in FRET fluorescence on stimulation” value (CFP-TRPV4-YFP) of the same compound?
A: transient decreases in the FRET

Q: Which EC50 (CaM; [7]) does the source give for `CC(C)C[C@H](NC(=O)[C@H](CCCNC(=N)N)NC(=O)CNC(=O)[C@@H](NC(=O)[C@@H](NC(=O)[C@H](Cc1c[nH]cn1)NC(=O)[C@H](CO)NC(=O)[C@H](Cc1ccccc1)NC(=O)CN)[C@@H](C)O)C(C)C)C(=O)N[C@@H](CCCNC(=N)N)C(=O)N[C@@H](CCCNC(=N)N)C(=O)N[C@@H](CC(=O)O)C(=O)N[C@@H](CCCNC(=N)N)C(=O)N[C@@H](Cc1c[nH]c2ccccc12)C(=O)N[C@@H](CO)C(=O)N[C@@H](CO)C(=O)N[C@H](C(=O)N[C@H](C(=O)N1CCC[C@H]1C(=O)N[C@@H](CCCNC(=N)N)C(=O)N[C@H](C(=O)N[C@H](C(=O)N[C@@H](CCC(=O)O)C(=O)O)C(C)C)C(C)C)C(C)C)C(C)C` [P5] here?
A: 3.2 µM

Q: With “C-V4-Y: TRPV4 with CFP and YFP fused to the N- and C termini” as the compound, how does the FRET efficiency (TRPV4 [1]) read?
A: 14.6±1.1

Q: How did the EC50 (CaM; [7]) turn out when GRPNLRMKFQGAFRKGVPNP [P1] was run?
A: 3.6 µM

Q: How did the “interaction with C2” value (TRPV4 C2 fragment [2]; 10 nM C2-biotin, N2-Flag 30 pM to 1.5 µM, N3 data not shown) turn out when “N3: N-terminal TRPV4 fragment, residues 114-161, includes P2 (RHHSSDNKRWRKKIIEKQPQSPKAPAPQPPPILKVFNRPILFDIVSRG; UniProt Q9HBA0 114-161, looked up, fragment)” was run?
A: interdomain interaction could also be shown

Q: What about the “overlay binding site, C terminus library” value [3] of the same compound?
A: strong interaction was found with a region that corresponds to the CaM binding peptide P5

Q: How did the EC50 (CaM; [7]) turn out when RSFPVFLRKAFRSGEMVTVGKSSD [P4] was run?
A: 7.3 µM

Q: What about the EC50 (CaM; tracer peptide 100 nM, CaM 0.1 nM to 10 µM, read-out: CaM binding EC50) of the same compound?
A: 5 µM

Q: How did the “interaction with C2-Flag” value (TRPV4 C2 fragment [2]; 100 µM Ca^2+ or 1 mM EGTA, absence of CaM (C2: absence or presence of CaM)) turn out when SSDNKRWRKKIIEKQPQSPK [P2] was run?
A: strong constitutive interaction

Q: What about the “Ca^2+-dependence of P2/C2 interaction” value (TRPV4 C2 fragment [2]; no CaM, Ca^2+ 10 nM to 10 mM) of the same compound?
A: already present at 0 Ca^2+ and essentially Ca^2+-insensitive over a wide range of Ca^2+ concentrations

Q: calmodulin [CaM] was tested. Which EC50 (TRPV4 C2 fragment [4]; AlphaScreen, C2-biotin with CaM-Flag or mutant, 10 nM each, value is Ca^2+ concentration, 50 mM Tris pH 7.4, 100 mM KCl, 0.1% BSA, 90 min room temperature, n = 3 independent experiments in triplicate, read-out: EC50 Ca^2+ concentration for C2 interaction (half maximal binding)) did it give?
A: 8.8 ± 1 µM

Q: What about the “AlphaScreen signal of CaM/C2 in EGTA” value (TRPV4 C2 fragment [4]; CaM-biotin and C2-Flag in 1 mM EGTA) of the same compound?
A: No signal was detected

Q: What about the “Hill coefficient (common)” value (TRPV4 C2 fragment [4]; Ca^2+-dependence of C2 binding, common fit for CaM, CaM12 and CaM34, n = 3) of the same compound?
A: 2.0

Q: And the “binding to TRPV4” value (TRPV4 C2 fragment [4]; Ca^2+-free buffers for CaM)?
A: neither binds to CaM in Ca^2+-free buffers

Q: And the Kd [5]?
A: 400 nM

Q: And the “current increase upon addition of Ca^2+ on overexpression” value (TRPV4 [6]; HEK293 cells coexpressing TRPV4, 4α-PMA in Ca^2+-free bath, then 2 mM Ca^2+, +100 and -100 mV, CaM12 p = 0.013 and 0.007 compared to CaM overexpression)?
A: slightly increased the TRPV4 response to Ca^2+, but the increase is not statistically significant

Q: What about the “effect on spontaneous or 4α-PMA-activated currents” value (TRPV4 [6]; nominally Ca^2+-free solution, data not shown) of the same compound?
A: had no effect on spontaneous currents, or currents activated by 4α-PMA

Source: paper PMC2867956, “Interdomain Interactions Control Ca^2+-Dependent Potentiation in the Cation Channel TRPV4” (PLoS ONE, 2010)
